According to article PMC7203344, “Sirtuin 1 Inhibiting Thiocyanates (S1th)—A New Class of Isotype Selective Inhibitors of NAD^+ Dependent Lysine Deacetylases” (Frontiers in Oncology, 2020):

Legend:
human Sirt3 = target: T1, human Sirt3 (Homo sapiens, UniProt Q9NTG7); test: Homogeneous ZMAL-based fluorescence assay, Sirt3; assay type: biochemical; conditions: 4th round
T1 construct: Human Sirt3_118−395 was expressed and purified as described previously; made in house
T1 sequence (Q9NTG7 118-395): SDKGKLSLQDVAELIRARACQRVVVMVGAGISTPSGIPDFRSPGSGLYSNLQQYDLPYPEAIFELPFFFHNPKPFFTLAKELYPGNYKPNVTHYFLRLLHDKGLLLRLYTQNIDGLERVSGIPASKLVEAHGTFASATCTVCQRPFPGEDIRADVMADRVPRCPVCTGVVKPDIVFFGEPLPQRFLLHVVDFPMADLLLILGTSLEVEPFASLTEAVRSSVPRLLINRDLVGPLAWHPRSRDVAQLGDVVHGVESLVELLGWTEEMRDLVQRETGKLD
Procedure: Recombinant human Sirt5_37−310 was purchased readily in Tris Buffer [25 mM Tris, 100 mM NaCl, 5 mM DTT, 10% glycerol (v/v)] from Enzo Life Sciences (NY, USA). Human Sirt3_118−395 was expressed and purified as described previously ([54]). For expression of human Sirt1_134−747 and Sirt2_56−356 chemically competent cells of E. coli BL21 Star (DE3) were transformed with the expression vectors pET30S-hSirt1_134−747 or pET30S-hSirt2_56−356. Bacteria were grown at 37°C in 2×YT medium supplemented with 50 μg·mL^−1 of kanamycin to an OD600 of 0.6. Then isopropyl-β-D-1-thiogalactopyranoside (IPTG) was added to a final concentration of 1 mM to induce gene expression. After further cultivation at 20°C for 12 h, the cells were harvested by centrifugation for 15 min at 5,000 g. The cells were resuspended in lysis buffer [100 mM Tris/HCl buffer at pH 8.0, 150 mM NaCl and 10% (v/v) glycerol] and disrupted by ultrasonication (Branson Digital Sonifier 250) at 70% amplitude for 10 min (3 s working, 10 s pause). The crude extract was cleared by centrifugation at 100,000 g for 1 h, and the supernatant was loaded onto a Strep-Tactin Superflow cartridge (5 ml bed volume, IBA Lifescience, Germany). Target proteins were eluted with lysis buffer containing 5 mM D-Desthiobiotin (IBA Lifescience, Germany) and further separated by size-exclusion chromatography (Superdex S200 26/60, GE Healthcare, IL, USA) equilibrated in Tris/HCl buffer (20 mM, 150 mM NaCl, pH 8.0). Pure protein was concentrated by ultrafiltration, flash-frozen in liquid nitrogen and stored at −80°C until further use. Identity as well as purity were verified by SDS-PAGE ([55]) and protein concentration was determined by the bicinchoninic acid (BCA) method, using bovine serum albumin (BSA) as a standard ([56]). Deacetylase activity was confirmed to be NAD^+-dependent and could be inhibited with the physiological sirtuin inhibitor nicotinamide.
All compounds were tested in the trypsin-coupled high-throughput ZMAL-assay in black 96-well plates (OptiPlateTM−96F, black, 96 well, Pinch bar design, PerkinElmer, USA), using ZMAL (Z-Lys(acetyl)-AMC) as a substrate ([57]). Sirt1_134−747, Sirt2_56−356, and Sirt3_118−395 were mixed with 5 μL substrate (10.5 μM final assay concentration, diluted from a […] stock in DMSO) and 3 μL Inhibitor in DMSO at various concentrations or DMSO as a control [final DMSO concentration 5% (v/v)]. The mixture was supplemented with assay buffer (50 mM Tris/HCl, 137 mM NaCl, 2.7 mM KCl, 1 mM MgCL2, pH 8.0) to a total volume of 55 μL. Enzyme concentration was adjusted to get a final conversion of 20–30%. Addition of 5 μL NAD^+ (6 mM in assay buffer, final assay concentration of 500 μM) initiated the catalytic reaction and the plates were incubated at 37°C for 4 h with agitation at 140 rpm. The catalytic reaction was stopped by addition of 60 μL stop solution [50 mM Tris, 100 mM NaCl, 6.7% (V/V) DMSO, 5.5 U/μL trypsin, 8 μM nicotinamide, pH 8.0]. The plate was again incubated at 37°C and 140 rpm for 20 min to release free AMC from the deacetylated substrate by trypsin digestion. Afterwards, fluorescence intensity was measured in a microplate reader (λEx = 390 nm, λEm = 460 nm, BMG POLARstar Optima, BMG Labtech, Germany). An enzyme-free blank control and a 100% conversion control containing AMC instead of ZMAL were measured in addition. Inhibition was calculated in % in relation to a DMSO control after blank signal subtraction and IC50 values were determined using a non-linear regression to fit the dose-response curve with OriginPro 9G (OriginLab, USA). Pre-tests as well as IC50 determination was carried out at least twice in duplicates.

Sirt1 = target: T2, Sirt1 (Homo sapiens, UniProt Q96EB6); test: Fluorescent thermal shift assay (FTSA), Sirt1; assay type: binding; conditions: inhibitor 100 μM; read-out: Thermal shift assay: Δ Tm of Sirt1
T2 construct: made in house; host or cells: E. coli BL21 Star (DE3)
T2 sequence (Q96EB6 134-747): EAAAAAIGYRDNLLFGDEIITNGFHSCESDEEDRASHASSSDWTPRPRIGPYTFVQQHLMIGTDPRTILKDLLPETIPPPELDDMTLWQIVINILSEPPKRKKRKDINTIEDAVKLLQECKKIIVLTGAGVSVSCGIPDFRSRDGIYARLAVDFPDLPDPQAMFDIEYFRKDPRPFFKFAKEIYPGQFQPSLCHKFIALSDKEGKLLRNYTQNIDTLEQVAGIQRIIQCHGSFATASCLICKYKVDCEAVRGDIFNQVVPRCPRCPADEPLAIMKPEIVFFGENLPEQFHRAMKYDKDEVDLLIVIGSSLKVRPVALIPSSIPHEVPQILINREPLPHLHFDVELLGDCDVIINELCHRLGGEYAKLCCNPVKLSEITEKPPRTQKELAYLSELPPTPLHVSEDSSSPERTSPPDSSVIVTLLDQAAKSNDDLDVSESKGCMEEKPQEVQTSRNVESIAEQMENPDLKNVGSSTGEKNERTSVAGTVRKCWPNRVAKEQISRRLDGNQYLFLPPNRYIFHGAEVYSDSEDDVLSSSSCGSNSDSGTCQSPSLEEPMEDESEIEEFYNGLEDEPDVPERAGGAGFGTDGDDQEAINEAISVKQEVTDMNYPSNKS
Procedure: In a 96-well plate (Hard-Shell® PCR-plates, 96-well, thin-wall, BioRAD, USA) 14 μL Sirt1_134−747 in assay buffer (0.3 mg/mL final assay concentration, 50 mM Tris/HCl, 137 mM NaCl, 2.7 mM KCl, 1 mM MgCL2, pH 8.0) were mixed with 1 μL inhibitor in DMSO (100 μM) or DMSO [final assay concentration 5% (v/v)] as a control and 5 μL SyproOrange (1:100 in assay buffer). The fluorescence intensity was monitored during a constant increase of temperature from 20 to 95°C, 1 K per 20 s, using a real-time-PCR-machine (C1000 TouchTM Thermal Cycler, CFX96TM Real-Time System, BioRAD, USA). Melting temperatures were calculated via GraphPad Prism according to a published procedure ([60]).

| Compound | inhibition at 50 µM (human Sirt3) | ΔTm at 100 µM (Sirt1) |
| --- | --- | --- |
| N#CSc1cc(SC#N)c(N)nc1N [PR-619, reference compound] | < 10% | – |
| N#CSc1cccc(NC(=O)[C@H]2CC=CC[C@H]2C(=O)O)c1 [S1th 10] | < 10% | -5.9 °C |
| CCCCNC(=O)Nc1cccc(SC#N)c1 [S1th 11] | < 10% | -8.1 °C |
| COc1ccc(SC#N)cc1OCC(=O)N(CCC#N)CCC#N [S1th 12] | < 10% | -7.2 °C |
| N#CSc1cccc(NS(=O)(=O)c2ccc3c(c2)OCCO3)c1 [S1th 13] | < 10% | -9.6 °C |
